Reference: US12110276B2 (Genentech, Inc., priority 2021, dated 2024)

Key:
[1] = biological target: TEAD4 (Homo sapiens (Human), UniProt Q15561); test: TR-FRET lipid pocket probe competition assay (Lipid HTRF), TEAD4; format: binding; settings: 4 hours pre-incubation; read-out: Lipid HTRF TEAD4 IC50;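 further: His-tagged TEAD4 with biotinylated lipid-pocket probe, read by Europium anti-His and XL665 streptavidin, where probe displacement lowers the TR-FRET signal, IC50 from a four-parameter fit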
Experimental: (§1) His-tagged TEAD proteins are pre-incubated with TEAD project compounds for 30 minutes or 4 hours at room temperature. Biotinylated lipid pocket probes are then added to the TEAD/Compound mixture and incubated for 60 minutes at room temperature. The lipid pocket probe competes with the test compound for the TEAD lipid pocket until equilibrium is reached. After 60 minutes, Europium labelled anti-His (Perkin Elmer #AD0110) and XL665 labelled streptavidin (CIS Bio 610SAXAC) are added to the TEAD/test compound/lipid pocket mixture and incubated for 30 minutes or 4 hours. […] If a TEAD lipid pocket binder such as binds and displaces the lipid pocket probe, the disruption of the TEAD:probe interaction results in a decrease in TR-FRET signal. The potency of compounds as TEAD lipid pocket binders is determined by IC50 value generated using a non-linear 4 parameter curve fit.

[2] = biological target: TEAD3 (Homo sapiens (Human), UniProt Q99594); test: TR-FRET lipid pocket probe competition assay (Lipid HTRF), TEAD3; format: binding; settings: 4 hours pre-incubation; read-out: Lipid HTRF TEAD3 IC50
Experimental: as §1

[3] = biological target: TEAD1 (Homo sapiens (Human), UniProt P28347); test: TR-FRET lipid pocket probe competition assay (Lipid HTRF), TEAD1; format: binding; settings: 4 hours pre-incubation; read-out: Lipid HTRF TEAD1 IC50;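 further: His-tagged TEAD1 with biotinylated probe, detected via Europium anti-His and XL665 streptavidin, probe displacement lowers TR-FRET signal, IC50 from four-parameter nonlinear fit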
[4] = biological target: TEAD2 (Homo sapiens (Human), UniProt Q15562);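 further: TR-FRET competition assay with His-tagged TEAD protein and a biotinylated lipid pocket probe, compound pre-incubated 30 min or 4 h at room temperature, displacement lowers signal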
TEAD2, sequence (Q15562 whole entry, species assumed): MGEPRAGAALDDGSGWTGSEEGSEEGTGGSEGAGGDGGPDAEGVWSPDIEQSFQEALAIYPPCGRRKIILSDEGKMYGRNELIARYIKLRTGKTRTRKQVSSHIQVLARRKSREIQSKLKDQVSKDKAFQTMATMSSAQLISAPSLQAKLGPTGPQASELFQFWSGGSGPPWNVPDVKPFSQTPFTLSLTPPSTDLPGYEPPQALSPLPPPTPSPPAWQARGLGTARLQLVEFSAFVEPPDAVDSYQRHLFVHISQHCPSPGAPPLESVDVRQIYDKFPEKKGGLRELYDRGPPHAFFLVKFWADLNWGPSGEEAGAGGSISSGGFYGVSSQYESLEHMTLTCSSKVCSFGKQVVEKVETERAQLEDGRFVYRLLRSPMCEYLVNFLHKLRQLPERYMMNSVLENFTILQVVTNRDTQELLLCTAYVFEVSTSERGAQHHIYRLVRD

TEAD3, sequence (Q99594 whole entry, species assumed): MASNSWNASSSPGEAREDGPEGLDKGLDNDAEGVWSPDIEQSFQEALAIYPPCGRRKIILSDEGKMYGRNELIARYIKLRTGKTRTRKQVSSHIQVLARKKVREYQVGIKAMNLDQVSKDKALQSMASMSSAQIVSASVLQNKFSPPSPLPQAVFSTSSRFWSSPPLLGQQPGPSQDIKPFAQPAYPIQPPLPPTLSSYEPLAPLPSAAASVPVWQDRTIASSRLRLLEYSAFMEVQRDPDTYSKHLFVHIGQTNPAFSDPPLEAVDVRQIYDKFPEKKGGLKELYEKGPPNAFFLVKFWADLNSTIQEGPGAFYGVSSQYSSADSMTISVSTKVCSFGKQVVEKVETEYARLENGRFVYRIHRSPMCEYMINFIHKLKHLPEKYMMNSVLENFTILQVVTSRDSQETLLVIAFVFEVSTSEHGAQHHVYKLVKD
TEAD4, sequence (Q15561 whole entry, species assumed): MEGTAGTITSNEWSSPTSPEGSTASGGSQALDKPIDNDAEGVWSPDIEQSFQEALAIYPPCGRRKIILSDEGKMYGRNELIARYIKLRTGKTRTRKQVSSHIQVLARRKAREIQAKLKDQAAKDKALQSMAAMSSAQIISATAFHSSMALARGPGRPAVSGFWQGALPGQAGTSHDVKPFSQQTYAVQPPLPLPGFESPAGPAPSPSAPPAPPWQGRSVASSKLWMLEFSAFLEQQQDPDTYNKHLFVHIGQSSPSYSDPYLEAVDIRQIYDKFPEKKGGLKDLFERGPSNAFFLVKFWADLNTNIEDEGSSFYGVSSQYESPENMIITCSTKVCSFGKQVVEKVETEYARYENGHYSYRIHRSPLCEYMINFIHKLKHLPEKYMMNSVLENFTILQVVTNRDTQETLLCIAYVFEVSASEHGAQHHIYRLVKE
TEAD1, sequence (P28347 whole entry, species assumed): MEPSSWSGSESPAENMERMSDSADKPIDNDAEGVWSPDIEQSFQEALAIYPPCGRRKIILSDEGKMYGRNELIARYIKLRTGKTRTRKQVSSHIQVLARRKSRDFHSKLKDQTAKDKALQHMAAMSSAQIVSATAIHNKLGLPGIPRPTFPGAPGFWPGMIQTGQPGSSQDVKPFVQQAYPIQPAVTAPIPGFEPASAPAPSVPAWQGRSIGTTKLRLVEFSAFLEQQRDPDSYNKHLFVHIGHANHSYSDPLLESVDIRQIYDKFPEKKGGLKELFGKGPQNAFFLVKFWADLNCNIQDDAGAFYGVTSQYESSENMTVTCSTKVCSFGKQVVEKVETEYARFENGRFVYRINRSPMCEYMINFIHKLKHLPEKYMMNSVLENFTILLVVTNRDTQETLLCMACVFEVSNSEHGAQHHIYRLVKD

Row | IC50 [1] | IC50 [2] | IC50 [3] | IC50 [4] | Compound
1 | 0.059 µM | 0.27 µM | 0.023 µM | 0.14 µM | C=CC(=O)NCc1nn(-c2ccc(OC(F)(F)F)cc2)c2cccc(CO)c12 [Compound 4, N-((4-(hydroxymethyl)-1-(4-(trifluoromethoxy)phenyl)-1H-indazol-3-yl)methyl)acrylamide]
2 | 0.037 µM | 0.27 µM | 0.017 µM | 0.31 µM | C=CC(=O)NCc1nn(-c2ccc(S(F)(F)(F)(F)F)cc2)c2cccc(CO)c12 [Compound 5, N-((4-(hydroxymethyl)-1-(4-(pentafluoro-λ^6-sulfanyl)phenyl)-1H-indazol-3-yl)methyl)acrylamide]
3 | 0.043 µM | 0.63 µM | 0.048 µM | 2.8 µM | C=CC(=O)NCc1nn(-c2ccc(S(F)(F)(F)(F)F)cc2)c2cccnc12 [Compound 12, N-((1-(4-(pentafluoro-λ^6-sulfanyl)phenyl)-1H-pyrazolo[4,3-b]pyridin-3-yl)methyl)acrylamide]
4 | 0.0086 µM | 0.23 µM | 0.01 µM | 0.33 µM | C=CC(=O)NCc1nn(-c2ccc(S(F)(F)(F)(F)F)cc2)c2ncccc12 [Compound 13, N-((1-(4-(pentafluoro-λ^6-sulfanyl)phenyl)-1H-pyrazolo[3,4-b]pyridin-3-yl)methyl)acrylamide]
5 | 0.033 µM | 0.14 µM | 0.084 µM | 50 µM | C=CC(=O)NCc1nn(-c2ccc(S(F)(F)(F)(F)F)cc2)c2cccc(C#N)c12 [Compound 14, N-((4-cyano-1-(4-(pentafluoro-λ^6-sulfanyl)phenyl)-1H-indazol-3-yl)methyl)acrylamide]
6 | 0.0034 µM | 0.1 µM | 0.0068 µM | 0.066 µM | C=CC(=O)N(C)Cc1nn(-c2ccc(OC(F)(F)F)cc2)c2ccccc12 [Compound 18, N-methyl-N-((1-(4-(trifluoromethoxy)phenyl)-1H-indazol-3-yl)methyl)acrylamide]
7 | 0.013 µM | 0.0385 µM | 0.0215 µM | 0.0072 µM | C=C(F)C(=O)N1CC(c2nn(-c3ccc(OC(F)(F)F)cc3)c3nccc([C@@H](O)CO)c23)C1 [Compound 21, 1-[3-[4-[(1R)-1,2-dihydroxyethyl]-1-[4-(trifluoromethoxy)phenyl]pyrazolo[3,4-b]pyridin-3-yl]azetidin-1-yl]-2-fluoro-prop-2-en-1-one]
8 | 0.0455 µM | 0.405 µM | 0.0185 µM | 0.13 µM | C=CC(=O)NCc1nn(-c2ccc(OC(F)(F)F)cc2)c2nccc(NC(=O)CO)c12 [Compound 24, N-((4-(2-Hydroxyacetamido)-1-(4-(trifluoromethoxy)phenyl)-1H-pyrazolo[3,4-b]pyridin-3-yl)methyl)acrylamide]
9 | 0.095 µM | 3.7 µM | 0.96 µM | 6 µM | C=CC(=O)NCc1nn(-c2ccc(OC(F)(F)F)cc2)c2nccc(C(=O)NCCO)c12 [Compound 25, 3-(Acrylamidomethyl)-N-(2-hydroxyethyl)-1-(4-(trifluoromethoxy)phenyl)-1H-pyrazolo[3,4-b]pyridine-4-carboxamide]
10 | 0.014 µM | 50 µM | 0.14 µM | 0.16 µM | O=C(/C=C\Cl)NCc1nn(-c2ccc(OC(F)(F)F)cc2)c2nccc([C@@H](O)CO)c12 [Compound 26, (R,Z)-3-chloro-N-((4-(1,2-dihydroxyethyl)-1-(4-(trifluoromethoxy)phenyl)-1H-pyrazolo[3,4-b]pyridin-3-yl)methyl)acrylamide]
11 | 0.033 µM | 5.7 µM | 0.023 µM | 0.22 µM | C=C(F)C(=O)N1CC(c2nn(-c3ccc(OC(F)(F)F)cc3)c3nccc(-c4cnn(CCO)c4)c23)C1 [Compound 28, 2-Fluoro-1-(3-(4-(1-(2-hydroxyethyl)-1H-pyrazol-4-yl)-1-(4-(trifluoromethoxy)phenyl)-1H-pyrazolo[3,4-b]pyridin-3-yl)azetidin-1-yl)prop-2-en-1-one]
12 | 0.18 µM | 2.6 µM | 0.49 µM | 1.5 µM | C=CC(=O)NCc1nn(-c2ccc(OC(F)(F)F)cc2)c2nccc(C(=O)NC)c12 [Compound 30, 3-(Acrylamidomethyl)-N-methyl-1-(4-(trifluoromethoxy)phenyl)-1H-pyrazolo[3,4-b]pyridine-4-carboxamide]
13 | 0.0255 µM | 0.062 µM | 0.035 µM | 0.032 µM | C=C(F)C(=O)N1CC(c2nn(-c3ccc(OC(F)(F)F)cc3)c3nccc([C@H](O)CO)c23)C1 [Compound 31, (S)-1-(3-(4-(1,2-dihydroxyethyl)-1-(4-(trifluoromethoxy)phenyl)-1H-pyrazolo[3,4-b]pyridin-3-yl)azetidin-1-yl)-2-fluoroprop-2-en-1-one]
14 | 0.025 µM | 0.22 µM | 0.013 µM | 0.057 µM | C=CC(=O)NCc1nn(-c2ccc(OC(F)(F)F)cc2)c2nccc(CO)c12 [Compound 32, N-((4-(Hydroxymethyl)-1-(4-(trifluoromethoxy)phenyl)-1H-pyrazolo[3,4-b]pyridin-3-yl)methyl)acrylamide]
15 | 0.014 µM | 0.64 µM | 0.017 µM | 0.17 µM | C=CC(=O)NCc1nn(-c2ccc(OC(F)(F)F)cc2)c2nccc(-c3cnn(CCO)c3)c12 [Compound 35, N-((4-(1-(2-Hydroxyethyl)-1H-pyrazol-4-yl)-1-(4-(trifluoromethoxy)phenyl)-1H-pyrazolo[3,4-b]pyridin-3-yl)methyl)acrylamide]
16 | 0.0058 µM | 0.5 µM | 0.0092 µM | 0.12 µM | C=CC(=O)NCc1nn(-c2ccc(OC(F)(F)F)cc2)c2nccc(NCCO)c12 [Compound 36, N-((4-((2-Hydroxyethyl)amino)-1-(4-(trifluoromethoxy)phenyl)-1H-pyrazolo[3,4-b]pyridin-3-yl)methyl)acrylamide]
17 | 0.0032 µM | 0.033 µM | 0.0069 µM | 0.014 µM | O=C(/C=C/Cl)NCc1nn(-c2ccc(OC(F)(F)F)cc2)c2nccc(CO)c12 [Compound 37, (E)-3-Chloro-N-((4-(hydroxymethyl)-1-(4-(trifluoromethoxy)phenyl)-1H-pyrazolo[3,4-b]pyridin-3-yl)methyl)acrylamide]
18 | 0.039 µM | 50 µM | 0.18 µM | 0.1 µM | C=CC(=O)NCc1nn(-c2ccc(OC(F)(F)F)cc2)c2nccc([C@H]3C[C@@H](O)C3)c12 [Compound 38, N-((4-(cis-3-Hydroxycyclobutyl)-1-(4-(trifluoromethoxy)phenyl)-1H-pyrazolo[3,4-b]pyridin-3-yl)methyl)acrylamide]
19 | 0.0054 µM | 0.84 µM | 0.042 µM | 0.019 µM | C=C(F)C(=O)N1CC(c2nn(-c3ccc(OC(F)(F)F)cc3)c3nccc(N4CC(F)(CO)C4)c23)C1 [Compound 39, 2-Fluoro-1-(3-(4-(3-fluoro-3-(hydroxymethyl)azetidin-1-yl)-1-(4-(trifluoromethoxy)phenyl)-1H-pyrazolo[3,4-b]pyridin-3-yl)azetidin-1-yl)prop-2-en-1-one]
20 | 0.013 µM | 0.066 µM | 0.016 µM | 0.048 µM | COC/C=C/C(=O)N1CC(c2nn(-c3ccc(OC(F)(F)F)cc3)c3nccc(CO)c23)C1 [Compound 40, (E)-1-(3-(4-(Hydroxymethyl)-1-(4-(trifluoromethoxy)phenyl)-1H-pyrazolo[3,4-b]pyridin-3-yl)azetidin-1-yl)-4-methoxybut-2-en-1-one]
21 | 0.025 µM | 0.027 µM | 0.02 µM | 0.2 µM | C=C(F)C(=O)N1CC(c2nn(-c3ccc(OC(F)(F)F)cc3)c3nccc(NC(=O)CO)c23)C1 [Compound 42, N-(3-(1-(2-Fluoroacryloyl)azetidin-3-yl)-1-(4-(trifluoromethoxy)phenyl)-1H-pyrazolo[3,4-b]pyridin-4-yl)-2-hydroxyacetamide]
22 | 0.0046 µM | 0.78 µM | 0.013 µM | 0.054 µM | C=CC(=O)NCc1nn(-c2ccc(OC(F)(F)F)cc2)c2nccc(N3CC(CO)C3)c12 [Compound 43, N-((4-(3-(hydroxymethyl)azetidin-1-yl)-1-(4-(trifluoromethoxy)phenyl)-1H-pyrazolo[3,4-b]pyridin-3-yl)methyl)acrylamide]
23 | 0.34 µM | 50 µM | 0.25 µM | 1.5 µM | C=C(F)C(=O)N1CC(c2nn(-c3ccc(OC(F)(F)F)cc3)c3nccc(-c4cnn(CCN(C)C)c4)c23)C1 [Compound 45, 1-(3-(4-(1-(2-(Dimethylamino)ethyl)-1H-pyrazol-4-yl)-1-(4-(trifluoromethoxy)phenyl)-1H-pyrazolo[3,4-b]pyridin-3-yl)azetidin-1-yl)-2-fluoroprop-2-en-1-one]
24 | 0.013 µM | 2.1 µM | 0.05 µM | 0.15 µM | C=CC(=O)NCc1nn(-c2ccc(OC(F)(F)F)cc2)c2nccc(N3CC[C@H](O)C3)c12 [Compound 46, (S)-N-((4-(3-hydroxypyrrolidin-1-yl)-1-(4-(trifluoromethoxy)phenyl)-1H-pyrazolo[3,4-b]pyridin-3-yl)methyl)acrylamide]

Row | Compound | IC50 [1] | IC50 [2] | IC50 [3] | IC50 [4]
25 | C=CC(=O)NCc1nn(-c2ccc(OC(F)(F)F)cc2)c2nccc(O[C@H]3C[C@@H](O)C3)c12 [Compound 34, N-((4-(cis-3-Hydroxycyclobutoxy)-1-(4-(trifluoromethoxy)phenyl)-1H-pyrazolo[3,4-b]pyridin-3-yl)methyl)acrylamide] | 0.039 µM | 50 µM | 0.023 µM | 0.34 µM
